Test results published in the NIST ThermoML archive (doi:10.1016/j.jct.2018.07.002).
± gives the expanded uncertainty stated by the source.

Columns and labels:
[1] = molar heat capacity at constant pressure; details: 100 kPa, Liquid, isoperibol calorimetry
[2] = excess molar enthalpy (molar enthalpy of mixing); xn = mol fraction of the nth substance listed; details: 313.15 K, 100 kPa, Liquid, Power-compensation calorimetry

Row | Compound | molar heat capacity at constant pressure ([1]; 303.15 K) [J/K/mol] | molar heat capacity at constant pressure ([1]; 313.15 K) [J/K/mol] | molar heat capacity at constant pressure ([1]; 323.15 K) [J/K/mol] | molar heat capacity at constant pressure ([1]; 333.15 K) [J/K/mol] | molar heat capacity at constant pressure ([1]; 343.15 K) [J/K/mol] | molar heat capacity at constant pressure ([1]; 353.15 K) [J/K/mol] | molar heat capacity at constant pressure ([1]; 363.15 K) [J/K/mol] | molar heat capacity at constant pressure ([1]; 373.15 K) [J/K/mol] | excess molar enthalpy ([2]; x1 = 0.017) [kcal/mol] | excess molar enthalpy ([2]; x1 = 0.019) [kcal/mol] | excess molar enthalpy ([2]; x1 = 0.023) [kcal/mol] | excess molar enthalpy ([2]; x1 = 0.027) [kcal/mol] | excess molar enthalpy ([2]; x1 = 0.25) [kcal/mol] | excess molar enthalpy ([2]; x1 = 0.5) [kcal/mol]
1 | CCOP(=O)([O-])OCC.CCn1cc[n+](C)c1 [1-ethyl-3-methylimidazolium diethyl phosphate] | 504.73 ± 32 | 507.38 ± 32 | 510.02 ± 32 | 515.3 ± 32 | 523.23 ± 32 | 528.52 ± 32 | 536.44 ± 32 | 541.73 ± 32 | – | – | – | – | – | –
2 | CCOP(=O)([O-])OCC.CCn1cc[n+](C)c1 [1-ethyl-3-methylimidazolium diethyl phosphate] + O | – | – | – | – | – | – | – | – | -0.112 ± 0.00454 | -0.13 ± 0.00526 | -0.154 ± 0.00621 | -0.181 ± 0.00741 | -1.19 ± 0.0478 | -1.26 ± 0.0502
